Experimental data published in ChEMBL document CHEMBL1201862, “PubChem BioAssay data set” (2004).
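Interpolation was linear, between the two tested concentrations surrounding the appropriate level; five concentrations were tested over 48 hours in 96-well plates. GI50: concentration for 50% inhibition of growth.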 Active and inactive are the calls of the source. Rule as the data show it: active = GI50 up to about 1.1 µM and inactive = higher.

Key:
Assay in all cases: inhibition of tumour cell growth, NCI panel, 48 h
[1] = system: A498
[2] = system: UACC-257
[3] = system: IGROV-1
[4] = system: SW-620
[5] = system: NCI-H23
[6] = system: HOP-92
[7] = system: 786-0
[8] = system: K562
[9] = system: A549
[10] = system: CCRF-CEM
[11] = system: NCI-H522
[12] = system: SNB-19
[13] = system: HT-29
[14] = system: SNB-75
[15] = system: NCI-H226
[16] = system: UACC-62
[17] = system: M14

Measured: GI50

CCOC(=O)C1(C(=O)OCC)OC(=O)NC2=C1CCCC2
inactive: [1] > 100 µM | [2] > 100 µM | [3] > 100 µM | [4] > 100 µM | [5] > 100 µM | [6] > 100 µM | [7] > 100 µM | [8] > 100 µM | [9] > 100 µM | [10] > 100 µM | [11] > 100 µM | [12] > 100 µM | [13] > 100 µM | [14] > 100 µM

CSc1nc(-c2ccccc2)c2c(n1)-c1ccccc1CC2
inactive: [15] > 100 µM | [1] > 100 µM | [2] > 100 µM | [3] > 100 µM | [4] > 100 µM | [5] > 100 µM | [6] > 100 µM | [7] > 100 µM | [8] > 100 µM | [9] > 100 µM | [10] > 100 µM | [11] > 100 µM | [12] > 100 µM | [13] 52 µM | [14] > 100 µM | [16] > 100 µM | [17] > 100 µM

O=Cc1ccc2c(c1-c1c(C=O)ccc3c1OCO3)OCO2
inactive: [15] > 100 µM | [1] > 100 µM | [2] > 100 µM | [3] > 100 µM | [4] > 100 µM | [5] > 100 µM | [7] > 100 µM | [8] > 100 µM | [9] > 100 µM | [10] 85.1 µM | [11] > 100 µM | [12] > 100 µM | [13] > 100 µM | [14] > 100 µM | [16] > 100 µM | [17] > 100 µM

COc1ccc2c(c1)CCc1c(-c3n[nH]c4c3CCc3cc(OC)ccc3-4)n[nH]c1-2
inactive: [15] 28.8 µM | [1] 27.6 µM | [2] 21.5 µM | [3] 48.6 µM | [4] 17.9 µM | [5] 79.4 µM | [6] 30.8 µM | [7] 19 µM | [8] 8.89 µM | [9] 30.3 µM | [10] 26.1 µM | [11] 20.2 µM | [12] 76.9 µM | [13] 33.2 µM | [14] 23.3 µM | [16] 23.5 µM | [17] 25.9 µM

O=C(Sc1sc(=S)sc1SC(=O)c1ccccc1)c1ccccc1
inactive: [1] 31.5 µM | [2] > 100 µM | [3] 43.2 µM | [4] > 100 µM | [5] > 100 µM | [6] 50.6 µM | [7] > 100 µM | [8] > 100 µM | [9] 27.6 µM | [10] > 100 µM | [11] > 100 µM | [12] 37.1 µM | [13] 36.6 µM | [14] 30.3 µM | [16] 21.9 µM | [17] 68.9 µM

COCC(OC)C(CC=C(C#N)C#N)OC (configuration not stated)
inactive: [1] > 100 µM | [2] > 100 µM | [3] > 100 µM | [4] > 100 µM | [5] > 100 µM | [6] > 100 µM | [7] > 100 µM | [8] > 100 µM | [9] > 100 µM | [10] > 100 µM | [11] > 100 µM | [12] > 100 µM | [13] > 100 µM | [16] > 100 µM | [17] > 100 µM

CC(C)(O)[C@@H]1CCC(C)([C@H]2[C@@H](O)CC3(C)C4CC(OC5OC(CO)C(O)C(O)C5O)C5C(C)(C)[C@@H](OC6OCC(O)C(O)C6O)CC[C@@]56C[C@@]46CC[C@]23C)O1 (some centres not stated)
inactive: [15] > 100 µM | [2] > 100 µM | [3] > 100 µM | [4] > 100 µM | [5] > 100 µM | [6] > 100 µM | [7] > 100 µM | [8] > 100 µM | [9] > 100 µM | [10] > 100 µM | [11] > 100 µM | [12] > 100 µM | [13] > 100 µM | [14] > 100 µM | [16] > 100 µM | [17] > 100 µM

Cn1c(=O)nc2n(-c3cccc(Br)c3)c3ccccc3nc-2c1=O
inactive: [15] 8.38 µM | [1] 10.2 µM | [2] 2.09 µM | [3] 7.76 µM | [4] 2.61 µM | [5] 1.61 µM | [7] 3.71 µM | [8] 5.16 µM | [9] 2.92 µM | [10] 5.82 µM | [11] 6.62 µM | [12] 1.38 µM | [13] 2.82 µM | [14] 9.82 µM | [16] 1.63 µM | [17] 2.81 µM
